Data on 4 sequences can be found in US20070128217A1 (priority 2003, published 2007).

Test [1] deals with antibodies in sera from SARS patients (sera 1a, 1b, 2, 6, 37, 62, London, SARS-yellow, SARS-green). The test is classed as binding, human. Further details: Binding of serum 6 to linear peptides of protein X1 of SARS-CoV Urbani / Binding of serum 37 to linear peptides of protein X1 of SARS-CoV Urbani / Binding of serum 6 to looped/cyclic peptide (PEPSCAN-ELISA) / Binding of serum 37 to looped/cyclic peptide (PEPSCAN-ELISA) / Binding of serum 37 to looped/cyclic peptides of protein X1 of SARS-CoV Urbani / Binding of serum 6 to linear peptides of protein X2 / Binding of serum 37 to linear peptides of protein X2 / Binding of serum 37 to looped/cyclic peptides of protein X2 of SARS-CoV Urbani / Binding of serum 6 to linear peptides of protein M of SARS-CoV Urbani / Binding of serum 37 to linear peptides of protein M of SARS-CoV Urbani / Binding of serum 6 to looped/cyclic peptides of protein M of SARS-CoV Urbani / Binding of serum 37 to looped/cyclic peptides of protein M of SARS-CoV Urbani / Binding of serum 6 to linear peptides of protein X3 of SARS-CoV Urbani / Binding of serum 37 to linear peptides of protein X3 of SARS-CoV Urbani / Binding of serum 37 to looped/cyclic peptides of protein X3 of SARS-CoV Urbani / Binding of serum 6 to linear peptides of protein X4 of SARS-CoV Urbani / Binding of serum 37 to linear peptides of protein X4 of SARS-CoV Urbani / Binding of serum 37 to looped/cyclic peptides of protein X4 of SARS-CoV Urbani / Binding of serum 6 to linear peptides of protein X5 of SARS-CoV Urbani / Binding of serum 37 to linear peptides of protein X5 of SARS-CoV Urbani / Binding of serum 37 to looped/cyclic peptides of protein X5 of SARS-CoV Urbani / Binding of serum 6 to linear peptides of protein N of SARS-CoV Urbani / Binding of serum 37 to linear peptides of protein N of SARS-CoV Urbani / Binding of serum 6 to linear peptide (PEPSCAN-ELISA) / Binding of serum 1a to looped/cyclic peptides of protein N of SARS-CoV Urbani / Binding of serum 1b to looped/cyclic peptides of protein N of SARS-CoV Urbani / Binding of serum 2 to looped/cyclic peptides of protein N of SARS-CoV Urbani / Binding of serum 6 to looped/cyclic peptides of protein N of SARS-CoV Urbani / Binding of serum 37 to looped/cyclic peptides of protein N of SARS-CoV Urbani / Binding of serum 62 to looped/cyclic peptides of protein N of SARS-CoV Urbani / Binding of serum London to looped/cyclic peptides of protein N of SARS-CoV Urbani / Binding of serum SARS-green to looped/cyclic peptides of protein N of SARS-CoV Urbani: unit not given here.

Test [2] concerns control sera (pooled serum of ten healthy LUMC hospital workers; commercial negative donor pooled serum from the Dutch bloodbank). The test is classed as binding, human. Further details: Binding of Control serum LUMC to linear peptides / Binding of Control serum Blood-bank to linear peptides / Binding of Control serum LUMC to looped peptides / Binding of Control Serum Blood-Bank to Looped peptides / Binding of Control serum LUMC to linear peptides of the protein M of SARS-CoV Urbani / Binding of Control serum Blood-bank to linear peptides of the protein M of SARS-CoV Urbani / Binding of Control serum LUMC to looped peptides of the protein M of SARS-CoV Urbani / Binding of Control Serum Blood-Bank to Looped peptides of the protein M of SARS-CoV Urbani: unit not given here.

Test [3] deals with rabbit serum obtained by immunizing a rabbit with the SARS-CoV strain Frankfurt 1. The test is classed as binding. Details: Binding of a rabbit serum to linear peptides / Binding of a rabbit serum to looped peptides / Rabbit serum linear peptides / Rabbit serum looped peptides / Binding of a rabbit serum to linear peptides of protein N of SARS-CoV Urbani (Rabbit serum linear peptides) / Binding of a rabbit serum to looped/cyclic peptides of protein N of SARS-CoV Urbani (Rabbit serum looped peptides): unit not given here.

WLVIGVAFLAVFQSA: in test [1], the “Binding of serum 1a to linear peptides of protein X1 of SARS-CoV Urbani” value came to 0.6, the “Binding of serum 1a to looped/cyclic peptide (PEPSCAN-ELISA)” value is recorded as 0.5, the “Binding of serum 1b to linear peptides of protein X1 of SARS-CoV Urbani” value stood at 0.5 and the “Binding of serum 1b to looped/cyclic peptide (PEPSCAN-ELISA)” value came out at 0.3. Further, in test [1], the “Binding of serum 2 to linear peptides of protein X1 of SARS-CoV Urbani” value is reported as 0.5, the “Binding of serum 2 to looped/cyclic peptide (PEPSCAN-ELISA)” value was determined as 0.4, the “Binding of serum 6 to linear peptides of protein X1 of SARS-CoV Urbani” value was determined as 0.4 and the “Binding of serum 6 to looped/cyclic peptide (PEPSCAN-ELISA)” value is 0.2. In test [1], the “Binding of serum 37 to linear peptides of protein X1 of SARS-CoV Urbani” value was found to be 0.7, the “Binding of serum 37 to looped/cyclic peptide (PEPSCAN-ELISA)” value was determined as 0.5, the “Binding of serum 62 to linear peptides of protein X1 of SARS-CoV Urbani” value amounted to 0.6 and the “Binding of serum 62 to looped/cyclic peptide (PEPSCAN-ELISA)” value is on record as 0.5. Moreover, in test [1], the “Binding of serum London to linear peptides of protein X1 of SARS-CoV Urbani” value was 0.3, the “Binding of serum London to looped/cyclic peptide (PEPSCAN-ELISA)” value is 0.2, the “Binding of serum SARS-green to linear peptides of protein X1 of SARS-CoV Urbani” value is on record as 0.3 and the “Binding of serum SARS-green to looped/cyclic peptide (PEPSCAN-ELISA)” value stood at 0.2. In addition, in test [1], the “Binding of serum SARS-yellow to linear peptides of protein X1 of SARS-CoV Urbani” value is on record as 0.4 and the “Binding of serum SARS-yellow to looped/cyclic peptide (PEPSCAN-ELISA)” value turned out to be 0.5. Moreover, in test [2], the “Binding of Control Serum Blood-Bank to Looped peptides” value stood at 0.5, the “Binding of Control serum Blood-bank to linear peptides” value was 0.6, the “Binding of Control serum LUMC to linear peptides” value came out at 0.6 and the “Binding of Control serum LUMC to looped peptides” value is reported as 0.5. For the same sequence, in test [3], the “Binding of a rabbit serum to linear peptides” value was 0.5 and the “Binding of a rabbit serum to looped peptides” value is recorded as 0.5.

With WNLVIGFLFLAWIML, in test [1], the “Binding of serum 1a to linear peptides of protein M of SARS-CoV Urbani” value is recorded as 0.7, the “Binding of serum 1a to looped/cyclic peptides of protein M of SARS-CoV Urbani” value was 0.6, the “Binding of serum 1b to linear peptides of protein M of SARS-CoV Urbani” value was found to be 0.6 and the “Binding of serum 1b to looped/cyclic peptides of protein M of SARS-CoV Urbani” value was determined as 0.5. Moreover, in test [1], the “Binding of serum 2 to linear peptides of protein M of SARS-CoV Urbani” value is 0.4, the “Binding of serum 2 to looped/cyclic peptides of protein M of SARS-CoV Urbani” value is reported as 0.6, the “Binding of serum 6 to linear peptides of protein M of SARS-CoV Urbani” value is 0.3 and the “Binding of serum 6 to looped/cyclic peptides of protein M of SARS-CoV Urbani” value stood at 0.4. Moreover, in test [1], the “Binding of serum 37 to linear peptides of protein M of SARS-CoV Urbani” value is on record as 0.4, the “Binding of serum 37 to looped/cyclic peptides of protein M of SARS-CoV Urbani” value was 0.6, the “Binding of serum 62 to linear peptides of protein M of SARS-CoV Urbani” value was found to be 0.4 and the “Binding of serum 62 to looped/cyclic peptides of protein M of SARS-CoV Urbani” value amounted to 0.6. Moreover, in test [1], the “Binding of serum London to linear peptides of protein M of SARS-CoV Urbani” value is given as 0.3, the “Binding of serum London to looped/cyclic peptides of protein M of SARS-CoV Urbani” value was 0.2, the “Binding of serum SARS-green to linear peptides of protein M of SARS-CoV Urbani” value is recorded as 0.4 and the “Binding of serum SARS-green to looped/cyclic peptides of protein M of SARS-CoV Urbani” value was determined as 0.3. In test [1], the “Binding of serum SARS-yellow to linear peptides of protein M of SARS-CoV Urbani” value is 0.2 and the “Binding of serum SARS-yellow to looped/cyclic peptides of protein M of SARS-CoV Urbani” value was determined as 0.7. Moreover, in test [2], the “Binding of Control Serum Blood-Bank to Looped peptides of the protein M of SARS-CoV Urbani” value is given as 0.5, the “Binding of Control serum Blood-bank to linear peptides of the protein M of SARS-CoV Urbani” value was 0.6, the “Binding of Control serum LUMC to linear peptides of the protein M of SARS-CoV Urbani” value was found to be 0.6 and the “Binding of Control serum LUMC to looped peptides of the protein M of SARS-CoV Urbani” value came out at 0.7. For the same sequence, in test [3], the “Rabbit serum linear peptides” value was determined as 0.2 and the “Rabbit serum looped peptides” value is listed as 0.3.

For the sequence WSFNPETNILLNVPL, in test [1], the “Binding of serum 1a to linear peptides of protein M of SARS-CoV Urbani” value was 1.5, the “Binding of serum 1a to looped/cyclic peptides of protein M of SARS-CoV Urbani” value came out at 0.8, the “Binding of serum 1b to linear peptides of protein M of SARS-CoV Urbani” value came out at 1.7 and the “Binding of serum 1b to looped/cyclic peptides of protein M of SARS-CoV Urbani” value was determined as 0.5. For the same sequence, in test [1], the “Binding of serum 2 to linear peptides of protein M of SARS-CoV Urbani” value is 1.3, the “Binding of serum 2 to looped/cyclic peptides of protein M of SARS-CoV Urbani” value is on record as 0.6, the “Binding of serum 6 to linear peptides of protein M of SARS-CoV Urbani” value worked out at 1.0 and the “Binding of serum 6 to looped/cyclic peptides of protein M of SARS-CoV Urbani” value came out at 0.5. Besides, in test [1], the “Binding of serum 37 to linear peptides of protein M of SARS-CoV Urbani” value stood at 0.9, the “Binding of serum 37 to looped/cyclic peptides of protein M of SARS-CoV Urbani” value is 0.7, the “Binding of serum 62 to linear peptides of protein M of SARS-CoV Urbani” value came out at 1.3 and the “Binding of serum 62 to looped/cyclic peptides of protein M of SARS-CoV Urbani” value stood at 0.7. In test [1], the “Binding of serum London to linear peptides of protein M of SARS-CoV Urbani” value is on record as 1.0, the “Binding of serum London to looped/cyclic peptides of protein M of SARS-CoV Urbani” value is 0.2, the “Binding of serum SARS-green to linear peptides of protein M of SARS-CoV Urbani” value stood at 1.5 and the “Binding of serum SARS-green to looped/cyclic peptides of protein M of SARS-CoV Urbani” value is given as 0.2. For the same sequence, in test [1], the “Binding of serum SARS-yellow to linear peptides of protein M of SARS-CoV Urbani” value was 1.1 and the “Binding of serum SARS-yellow to looped/cyclic peptides of protein M of SARS-CoV Urbani” value is 0.8. Also, in test [2], the “Binding of Control Serum Blood-Bank to Looped peptides of the protein M of SARS-CoV Urbani” value is 0.6, the “Binding of Control serum Blood-bank to linear peptides of the protein M of SARS-CoV Urbani” value is listed as 1.3, the “Binding of Control serum LUMC to linear peptides of the protein M of SARS-CoV Urbani” value is listed as 1.5 and the “Binding of Control serum LUMC to looped peptides of the protein M of SARS-CoV Urbani” value worked out at 0.8. In addition, in test [3], the “Rabbit serum linear peptides” value is 0.3 and the “Rabbit serum looped peptides” value worked out at 0.3.

As for YALIYFLQCINACRI, in test [1], the “Binding of serum 1a to linear peptides of protein X1 of SARS-CoV Urbani” value was determined as 0.7, the “Binding of serum 1a to looped/cyclic peptide (PEPSCAN-ELISA)” value stood at 0.2, the “Binding of serum 1b to linear peptides of protein X1 of SARS-CoV Urbani” value was found to be 0.5 and the “Binding of serum 1b to looped/cyclic peptide (PEPSCAN-ELISA)” value came out at 0.1. For the same sequence, in test [1], the “Binding of serum 2 to linear peptides of protein X1 of SARS-CoV Urbani” value is 0.5, the “Binding of serum 2 to looped/cyclic peptide (PEPSCAN-ELISA)” value is reported as 0.1, the “Binding of serum 6 to linear peptides of protein X1 of SARS-CoV Urbani” value was 0.4 and the “Binding of serum 6 to looped/cyclic peptide (PEPSCAN-ELISA)” value was found to be 0.0. Further, in test [1], the “Binding of serum 37 to linear peptides of protein X1 of SARS-CoV Urbani” value was determined as 0.6, the “Binding of serum 37 to looped/cyclic peptide (PEPSCAN-ELISA)” value was 0.1, the “Binding of serum 62 to linear peptides of protein X1 of SARS-CoV Urbani” value was 0.6 and the “Binding of serum 62 to looped/cyclic peptide (PEPSCAN-ELISA)” value was determined as 0.2. In test [1], the “Binding of serum London to linear peptides of protein X1 of SARS-CoV Urbani” value was found to be 0.3, the “Binding of serum London to looped/cyclic peptide (PEPSCAN-ELISA)” value was 0.1, the “Binding of serum SARS-green to linear peptides of protein X1 of SARS-CoV Urbani” value is 0.2 and the “Binding of serum SARS-green to looped/cyclic peptide (PEPSCAN-ELISA)” value was 0.2. In test [1], the “Binding of serum SARS-yellow to linear peptides of protein X1 of SARS-CoV Urbani” value was found to be 0.4 and the “Binding of serum SARS-yellow to looped/cyclic peptide (PEPSCAN-ELISA)” value was determined as 0.0. Moreover, in test [2], the “Binding of Control Serum Blood-Bank to Looped peptides” value was determined as 0.3, the “Binding of Control serum Blood-bank to linear peptides” value was found to be 0.6, the “Binding of Control serum LUMC to linear peptides” value amounted to 0.6 and the “Binding of Control serum LUMC to looped peptides” value stood at 0.2. Besides, in test [3], the “Binding of a rabbit serum to linear peptides” value came out at 0.1 and the “Binding of a rabbit serum to looped peptides” value is given as 0.0.
